Test results as given in US20240376437A1, “TARGETING VON WILLEBRAND FACTOR TO MODEL DISEASE IN HUMAN PLURIPOTENT STEM CELLS” (University of Washington, priority 2023, published 2024).

Assays:
Type in all cases: cell-based, human
[1] = test system: VWF expression level in hPSC-EC; assay: VWF expression level in hPSC-EC by immunofluorescence
Method: (§1) Cells were fixed with 4% paraformaldehyde in 1×PBS for 15 minutes and subsequently washed three times with 1×PBS. For immunofluorescence, fixed samples were blocked with 5% donkey serum plus 0.1% Triton X-100 in 1×PBS, incubated overnight in 3% bovine serum albumin (BSA) (Sigma Aldrich)+1×PBS with primary antibodies, washed, incubated with secondary antibodies, washed and imaged. Primary antibodies included antibodies for VWF (Agilent Technologies; A008202), β-Actin (Cell Signaling Technology; 4970); DAPI (Cayman Chemical Company; 14285), Angiopoietin 2 (R&D Systems; AF623), CD31 (BD Biosciences; 555444), CD144 (BD Biosciences; 555661), and Notch1 (Cell Signaling Technology; 3608S). Fluorescence labeled antibodies included anti-rabbit IgG secondary antibody Alexa Fluor 488 (Thermo Fisher Scientific; A32731), anti-mouse IgG secondary antibody Alexa Fluor 555 (Thermo Fisher Scientific; A21422), and FITC anti-VWF antibody (Abcam; ab8822). To compare different experimental conditions, images were collected at identical microscopy setup using wide field or confocal fluorescence microscope. […]
hPSC-EC were treated with blood plasma or compounds to test their effects on VWF expression level in cells. […] Due to the high fluorescence background in 40% and 80% plasma treated cells, we only used less than 40% plasma to treat cells for immunofluorescence imaging. […]

[2] = test system: VWF level in HUVEC; assay: VWF level in HUVEC treated with DAPT (immunofluorescence and immunoblot)
Method: Cells were fixed with 4% paraformaldehyde in 1×PBS for 15 minutes and subsequently washed three times with 1×PBS. For immunofluorescence, fixed samples were blocked with 5% donkey serum plus 0.1% Triton X-100 in 1×PBS, incubated overnight in 3% bovine serum albumin (BSA) (Sigma Aldrich)+1×PBS with primary antibodies, washed, incubated with secondary antibodies, washed and imaged. Primary antibodies included antibodies for VWF (Agilent Technologies; A008202), β-Actin (Cell Signaling Technology; 4970); DAPI (Cayman Chemical Company; 14285), Angiopoietin 2 (R&D Systems; AF623), CD31 (BD Biosciences; 555444), CD144 (BD Biosciences; 555661), and Notch1 (Cell Signaling Technology; 3608S). Fluorescence labeled antibodies included anti-rabbit IgG secondary antibody Alexa Fluor 488 (Thermo Fisher Scientific; A32731), anti-mouse IgG secondary antibody Alexa Fluor 555 (Thermo Fisher Scientific; A21422), and FITC anti-VWF antibody (Abcam; ab8822). To compare different experimental conditions, images were collected at identical microscopy setup using wide field or confocal fluorescence microscope. Image analysis was performed using Fiji software.
Whole cells lysate was extracted using 1× RIPA lysis and extraction buffer (Thermo Fisher Scientific) supplemented with 1× protease inhibitor cocktail (Sigma Aldrich) and 1 μL Benzonase nuclease (Sigma Aldrich) per sample. […]

[3] = test system: hPSC-EC; assay: hPSC-EC maturation: cell size and CD144 junction morphology; conditions: 0 or 3 μM DAPT
Method: as §1
hPSC-EC were treated with blood plasma or compounds to test their effects on VWF expression level in cells. […] Due to the high fluorescence background in 40% and 80% plasma treated cells, we only used less than 40% plasma to treat cells for immunofluorescence imaging.

[4] = test system: VWF expression level in hPSC-EC; assay: VWF and CD144 protein in hPSC-EC by immunoblot
Method: Whole cells lysate was extracted using 1× RIPA lysis and extraction buffer (Thermo Fisher Scientific) supplemented with 1× protease inhibitor cocktail (Sigma Aldrich) and 1 μL Benzonase nuclease (Sigma Aldrich) per sample. Each sample was supplied with 100 mM DTT (Sigma Aldrich) and 1× Laemmli sample buffer (Bio-Rad) and heated at 95° C. for 5 minutes. The primary antibodies above were added to samples and followed by anti-rabbit or anti-mouse IgG secondary antibody conjugated with HRP (Thermo Fisher Scientific; 31460 or 31430). Immunoblots were imaged in the presence of Pierce ECL Western Blotting substrate (Thermo Fisher Scientific) and quantified using Fiji software.
Ten compounds were added separately to hPSC culture medium on day 6 of the cell differentiation and maintained in the media thereafter. The untreated cell culture medium was EGM with additional 20 ng/ml VEGF, 20 ng/ml FGF, and 1 μM Chir99021. Based on untreated cell culture medium, we tested the following additional concentrations of compounds: VEGF (30, 70, 120 ng/ml, Peprotech 100-20), FGF (30, 70, 120 ng/ml, PeproTech 100-18B), human transforming growth factor β1 (TGFβ1, 1, 3, 10 ng/ml, R&D Systems 240-B), lipopolysaccharide (LPS, 1, 3, 10 ng/ml, Santa Cruz sc-3535), human interferon gamma (IFN, 1, 3, 10 ng/ml, Peprotech 300-02), human noggin (1, 3, 10 ng/ml, Peprotech, 120-10C), Chir99021 (1, 3, 10 µM, Reprocell 04-0004-10), Smoothened agonist (SAG, 1, 3, 10 μM, Cayman Chemical 11914), BMP4 (1, 3, 10, 50 ng/ml, R&D Systems 314-BP), or DAPT (1, 3, 10 µM, Tocris 2634). Concentrations of these compounds that were likely to be safe and efficacious were used based on the literature and previous experience. To treat HUVEC with DAPT (Tocris 2634), 0/10/30 μM DAPT was added to the cell culture medium EGM on day 2 after cell passaging and maintained in the media thereafter. The cell culture medium with corresponding compound was changed every two days until cell fixation or cell lysis experiment on day 10-14 for hSPC-EC or day 7-9 for HUVEC.

[5] = test system: VWF at the hPSC-EC surface; assay: VWF string formation assay under flow after PMA stimulation; conditions: 3 μM DAPT from day 6; 100 ng/mL PMA 20 min, flow 2.5 dyn/cm^2 5 min
Method: The hPSC-EC from day 5 of cell differentiation were seeded in a flow chamber (ibidi GmbH, μ-slide VI 0.4, 17×3.8×0.4 mm) precoated with 2.5 mg/mL collagen (Corning, Rate Tail Collagen Type I). Cells were fed by EGM endothelial cell growth medium+20 ng/ml recombinant human VEGF165+20 ng/mL recombinant human FGF-basic+1 μM Chir-99021 until day 12 of cell differentiation. The flow chamber was washed by 100 μl EBM endothelial cell growth basal medium (Lonza) twice. Cells were stimulated in EBM medium with 100 ng/mL PMA at stasis at 37° C. and 5% CO2 for 20 minutes and then followed by flow (2.5 dyn/cm^2 wall shear stress) using a syringe pump for 5 minutes. After flow stopped, the flow chamber was blocked by 6% BSA (Sigma Aldrich) in EBM medium for 10 minutes. […] Cells were washed by EBM medium for three times and imaged under Olympus wide field fluorescence microscope. […]
VWF forms strings on HUVEC surface upon stimulation by agonists such as phorbol 12-myristate 13-acetate (PMA) (FIG. 10A). […] The effect of enhancing VWF level on VWF string formation was then evaluated. hPSC-EC were transferred into a microfluidic channel on day 5 of differentiation and treated with 3 μM DAPT from day 6 onwards. […] VWF attached to the EC surface was detected live by FITC-labeled anti-VWF antibody, which was introduced under flow. […]

For `C[C@H](NC(=O)Cc1cc(F)cc(F)c1)C(=O)N[C@H](C(=O)OC(C)(C)C)c1ccccc1` [DAPT], the “Levels of VWF by immunofluorescence in screen of ten compounds” value ([1]; added day 6 of differentiation, DAPT 1 μM) was “substantially increased levels of VWF”, the “Increase of VWF fluorescence intensity vs untreated control, repeated trials” value ([1]; final concentration of 1 μM DAPT) was “approximately two-fold” and the “VWF level in HUVEC by immunofluorescence and immunoblot” value ([2]; 0/10/30 μM DAPT) was “enhanced VWF level with increased DAPT concentrations”. For the same compound, the “VWF increase compared to untreated controls” value ([2]; HUVEC, 10 μM DAPT) was about 1.7 times, the “Changes in hPSC-EC size or junctional morphology” value [3] was “did not induce the changes” and the “CD144 marker for EC” value ([4]; DAPT-treated hPSC-EC) was “does not affect CD144”. The “VWF protein by immunoblot” value ([4]; DAPT-treated hPSC-EC) was “confirmed the increase in VWF protein”, the “DAPT final concentration at which VWF protein peaks (immunoblot)” value ([4]; hPSC-EC, DAPT 1, 3, 10 μM) was about 3 µM and the “VWF attached to the EC surface of control hPSC-EC” value [5] was “numerous foci of VWF at the cell surface”. The VWF string formation [5] was “formed strings attached to the EC surface”.
